{"source": "patent US20230041065A1", "about": "“METHODS FOR GENERATING HEMATOPOIETIC STEM CELLS” (The Brigham and Women`s Hospital, Inc., priority 2019, published 2023)", "key": {"human PSCs": {"tested_on": "human PSCs", "assay": "FACS analyses of hematopoietic differentiation of human PSCs (embryoid bodies)", "type": "cell-based", "protocol": "Embryoid body and hemogenic endothelium differentiation was performed as described in (Sugimura et al. 2017; Ditadi et al. 2015). Briefly, hiPSC colonies were dissociated with 0.05% trypsin for 5 min at 37° C., washed with PBS+2% FBS, and resuspended in StemPro-34 (Invitrogen, 10639-011) supplemented with L-glutamine (2 mM), penicillin/streptomycin ([…]), ascorbic acid (1 mM), human holo-Transferrin ([…], Sigma T0665), monothioglycerol (MTG, 0.4 mM), BMP4 (10 ng/ml), and Y-27632 (10 μM). Five million cells were seeded into 10 cm dishes (Ezsphere, Asahi Glass) for the spheroid formation. On Day 1, bFGF (5 ng/ml) and BMP4 (10 ng/ml) was added to the medium. On Day 2, the media was changed with the StemPro-34 supplemented with SB431542 (6 μM), CHIR99021 (3 μM), bFGF (5 ng/ml), and BMP4 (10 ng/ml). On Day 3, the medium was replaced with StemPro-34 supplemented with VEGF (15 ng/ml) and bFGF (10 ng/ml). On day 6, the medium was changed to StemPro-34 supplemented with bFGF (5 ng/ml), VEGF (15 ng/ml), interleukin (IL)-6 (10 ng/ml), IGF-1 (25 ng/ml), IL-11 (5 ng/ml), SCF (50 ng/ml) and EPO (2IU). The cells were maintained in a 5% CO2, 5% O2 and 95% humidity incubator. All cytokines were purchased from Peprotech.\nTo isolate the CD34^+ cells, the embryoid bodies (from day 8) were dissociated by 0.05% trypsin, filtered through a 70 μm strainer, CD34^+ cells were isolated by CD34 magnetic bead staining, and subsequently passaged through the LS columns (Miltenyi). A sample from every batch was tested by FACS to validate its purity with the panel. The following antibodies were employed: CD34-PEcy7 (Clone 581; Biolegend), FLK1-PE (CLONE #89106; BD), and 4′,6-diamidino-2-phenylindole (DAPI).\nIsolated CD34^+ cells were resuspended in StemPro-34 medium containing Y-27632 (10 μM), TPO (30 ng/ml), IL-3 (10 ng/ml), SCF (50 ng/ml), IL-6 (10 ng/ml), IL-11 (5 ng/ml), IGF-1 (25 ng/ml), VEGF (5 ng/ml), bFGF (5 ng/ml), BMP4 (10 ng/ml), and FLT3 (10 ng/ml) (Ferrel et al 2015). Cells were seeded at a density of 50,000 cells per well onto thin-layer Matrigel-coated 24-well plates. […]"}, "[1]": {"tested_on": "donor-derived blood lineages", "assay": "Functional and phenotypic analyses of donor-derived blood lineages in primary transplant", "type": "in vivo, mouse", "protocol": "Pulsating blood vessels like conditions were stimulated in vitro using Flexcell FX-4000 machine. To analyze roles of pharmacological targets in regulating the endothelial-to-HSC transition, mouse embryo-derived AGM or whole mouse embryo were exposed ex vivo with biomechanical stretching, chemicals, or drugs. Next, hematopoietic colony formation assays were performed by incubating mouse AGM-derived cells in StemCell M3434 media for seven days. Serial transplantation of AGM-derived HSCs in lethally irradiated SJL mice were performed. The stem cell frequency upon biomechanical stretching was analyzed using a limiting dilution assay. To characterize properties of AGM-HSC-derived blood cells in primary transplants, percentage chimerism and reconstitution was measured using FACS, globin transcripts were analyzed using quantitative reverse transcriptase-PCR, myeloperoxidase amount was measured using PicoKine ELISA kit, TCR-β rearrangement was analyzed using PCR for TCR-β locus, pre-immune IG detection was analyzed using Thermo-Fisher Mouse Ig Isotyping kit, and delayed-type hypersensitivity was analyzed by injecting sheep RBC (Rockland Immunochemicals) in the footpad of pre-sensitized mice.\nFACS was used to sort erythroid precursors (Cd45.2^+, Ter119^+, Cd71^+) from the unlysed bone marrow isolated from AGM-transplanted mice. Total RNA was isolated using the RNAeasy Minikit (QIAGEN) and cDNA synthesis performed using Superscript III (Invitrogen). Quantitative real-time PCR was performed using SYBR Green (QuantaBio) on an MX3000P machine with the indicated primers (Sankaran et al., 2009). We normalized the expression to that of glyceraldehyde-3-phosphate-dehydrogenase (Gapdh) (Ochida et al., 2010).\nNeutrophils (Cd45.2^+, Gr1^+, Mac1^+) were FACS sorted from the isolated bone marrow of 16 week-primary transplanted mice and cultured in IMDM with 10% FBS overnight (500,000 cells/mL) in 24-well plates. Supernatant was collected and the MPO concentration measured using the Mouse MPO/Myeloperoxidase PicoKine™ ELISA Kit (Boster). The MPO concentration was also measured in blood serum.\nT cells (Cd45.2^+, Cd3^+) and myeloid cells (Cd45.2^+, Mac1^+) were FACS sorted from the splenocytes of 16 week-primary transplanted mice. Next, genomic DNA was extracted, and PCR performed for DH (β2.1-JH (32.7 rearrangements within TCR-β locus. Our samples were denatured (94° C., 1 min), annealed (63° C., 2 mins) and extended (72° C., 2 mins) for 35 cycles. Primer sequences are as follows:\nTransplant mice were sensitized with sheep red blood cells (sRBC, 10^9 cells/mL, 50 μL per site, Rockland Immunochemicals) through subcutaneous (lower back) and intradermal injections (right footpad). […] After 48 hours of the challenge, the footpad thickness was measured with a micro-caliper. […]"}}, "note": "“Also recorded” adds a separate entry of the source.", "data": [{"smiles": "Clc1cccc(Cl)c1CSc1nnc(-c2cnccn2)s1", "note": "[Yoda1, 2-[5-[[(2,6-Dichlorophenyl)methyl]thio]-1,3,4-thiadiazol-2-yl]-pyrazine]", "values": [{"measurement": "improvement in the number of HSCs produced from hPSCs", "setting": "human PSCs; FIG. 7C", "result": 2, "unit": "Fold"}, {"measurement": "formation of CD34+CD90+ HSCs", "setting": "human PSCs; day 8+7 of hematopoietic differentiation", "result": "enhances the formation of HSCs from hPSC"}, {"measurement": "formation of hCD43negCD235negCD144+CD34+ HECs", "setting": "human PSCs; embryoid bodies, day 8, control and PIEZO1-/- PSCs", "result": "enhances the formation of hCD43^negCD235^negCD144^+CD34^+ HE cells in control but not in PIEZO1^−/− PSCs; also recorded: enhances the formation of hCD43^negCD235^negCD144^+CD34^+ HECs in control but not in PIEZO1^−/− PSCs"}, {"measurement": "expression of adult and embryonic hemoglobin types in donor erythroid cells", "setting": "[1]; bone marrow Cd71+Ter119+ sorted cells, primary transplant", "result": "reconstitutes to red cells containing adult hemoglobin"}, {"measurement": "myeloperoxidase (MPO) of donor neutrophils", "setting": "[1]; bone marrow Gr1+Mac1+ sorted cells, overnight culture, ELISA", "result": "reconstitute to functional myeloid cells displaying sufficient MPO levels"}, {"measurement": "delayed-type hypersensitivity", "setting": "[1]; primary transplant mice, footpad", "result": "possess T-cell mediated immune response"}, {"measurement": "TCRβ locus rearrangement of donor T cells", "setting": "[1]; spleen-sorted Cd3+ T cells", "result": "display T-cell receptor β (TCR β) rearrangement"}]}]}
